Experimental data as given in patent US7759337B2, “Phthalazine compounds and methods of use” (Amgen Inc., priority 2005, dated 2010).

System: production of TNF by monocytes activated with bacterial lipopolysaccharide (LPS)
Assay: Lipopolysaccharide-activated monocyte TNF production assay
Assay type: cell-based
Settings: Homo sapiens; whole blood monocyte assay (LPS induced TNF release)
Method in brief: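 Adherent human PBMC-derived monocytes preincubated 60 min with nine two-fold compound dilutions, then stimulated with E. coli K532 LPS (30 ng/mL in the added medium) for 4 h at 37 °C. Supernatant TNF measured by sandwich ELISA; IC50 is the compound concentration halving TNF production, from second-order polynomial fits.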

| SMILES | IC50 |
| --- | --- |
| Cc1ccc(C(=O)NC2CC2)cc1-c1ccc2c(N3CCC[C@@H]4CCCC[C@@H]43)nncc2c1 [Example 154, 3-{1-[(4aS,8aS)-octahydroquinolin-1(2H)-yl]phthalazin-6-yl}-N-cyclopropyl-4-methylbenzamide] | ≤ 5 µM |
| Cc1ccc(C(N)=O)cc1-c1ccc2c(OC(C)C)nncc2c1 [Example 155, 3-(1-isopropoxyphthalazin-6-yl)-4-methylbenzamide] | ≤ 5 µM |
| Cc1ccc(C(N)=O)cc1-c1ccc2c(-c3ccccc3Cl)nncc2c1 [Example 156, 3-[1-(2-chlorophenyl)phthalazin-6-yl]-4-methylbenzamide] | ≤ 5 µM |
| CC(=O)N1CCN(c2nncc3cc(-c4cc(C(=O)NC5CC5)ccc4C)ccc23)CC1 [Example 157, 3-[1-(4-acetylpiperazin-1-yl)phthalazin-6-yl]-N-cyclopropyl-4-methylbenzamide] | ≤ 5 µM |
| Cc1ccc(C(=O)NC2CC2)cc1-c1ccc2c(NC3CCCCC3)nncc2c1 [Example 158, 3-[1-(cyclohexylamino)phthalazin-6-yl]-N-cyclopropyl-4-methylbenzamide] | ≤ 5 µM |
| Cc1ccc(C(=O)NC2CC2)cc1-c1ccc2c(N3CCCCC3)nncc2c1 [Example 159, N-cyclopropyl-4-methyl-3-(1-piperidin-1-ylphthalazin-6-yl)benzamide] | ≤ 5 µM |
| Cc1ccc(C(=O)NC2CC2)cc1-c1ccc2c(N3CCO[C@@H](CO)C3)nncc2c1 [Example 160, N-cyclopropyl-3-{1-[(2R)-2-(hydroxymethyl)morpholin-4-yl]phthalazin-6-yl}-4-methylbenzamide] | ≤ 5 µM |
| Cc1ccc(C(=O)NC2CC2)cc1-c1ccc2c(N3CCN(c4c(C)cccc4C)CC3)nncc2c1 [Example 162, N-cyclopropyl-3-{1-[4-(2,6-dimethylphenyl)piperazin-1-yl]phthalazin-6-yl}-4-methylbenzamide] | ≤ 5 µM |
| Cc1ccc(C(=O)NC2CC2)cc1-c1ccc2c(N3CCNC(=O)C3)nncc2c1 [Example 163, N-cyclopropyl-4-methyl-3-[1-(3-oxopiperazin-1-yl)phthalazin-6-yl]benzamide] | ≤ 5 µM |
| Cc1ccc(C(=O)NC2CC2)cc1-c1ccc2c(Cl)nncc2c1 [Example 164, 3-(1-chlorophthalazin-6-yl)-N-cyclopropyl-4-methylbenzamide] | ≤ 5 µM |
| Cc1ccc(C(=O)NC2CC2)cc1-c1ccc2c(N3CCNCC3)nncc2c1 [Example 165, N-cyclopropyl-4-methyl-3-(1-piperazin-1-ylphthalazin-6-yl)benzamide] | ≤ 5 µM |
| Cc1ccc(C(=O)NC2CC2)cc1-c1ccc2c(N3CC[C@@H](O)C3)nncc2c1 [Example 166, N-cyclopropyl-3-{1-[(3R)-3-hydroxypyrrolidin-1-yl]phthalazin-6-yl}-4-methylbenzamide] | ≤ 5 µM |
| Cc1ccc(C(=O)NC2CC2)cc1-c1ccc2c(N3CCC4(CC3)OCCO4)nncc2c1 [Example 167, N-cyclopropyl-3-[1-(1,4-dioxa-8-azaspiro[4.5]dec-8-yl)phthalazin-6-yl]-4-methylbenzamide] | ≤ 5 µM |
| Cc1ccc(C(=O)NC2CC2)cc1-c1ccc2c(OC(C)C)nncc2c1 [Example 168, N-cyclopropyl-3-(1-isopropoxyphthalazin-6-yl)-4-methylbenzamide] | ≤ 5 µM |
| COc1nncc2cc(-c3cc(C(=O)NC4CC4)ccc3C)ccc12 [Example 169, N-cyclopropyl-3-(1-methoxyphthalazin-6-yl)-4-methylbenzamide] | ≤ 5 µM |
| Cc1ccc(C(=O)NC2CC2)cc1-c1ccc2c(-c3ccccc3Cl)nncc2c1 [Example 170, 3-[1-(2-chlorophenyl)phthalazin-6-yl]-N-cyclopropyl-4-methylbenzamide] | ≤ 5 µM |
| Cc1ccc(C(N)=O)cc1-c1ccc2c(N3C[C@@H](C)OC[C@H]3C)nncc2c1 [Example 171, 3-{1-[(2R,5R)-2,5-dimethylmorpholin-4-yl]phthalazin-6-yl}-4-methylbenzamide] | ≤ 5 µM |
